Results as given in patent US12065443B2, “Compounds and pharmaceutical compositions thereof for the treatment of diseases” (priority 2017, dated 2024).

Key:
Experiment in all cases: biochemical
[1] = target: T1, SIK1 (Homo sapiens, UniProt P57059); conditions: 33P radioactive SIK kinase assay, AMARA peptide, 10 μM ATP; read-out: SIK1 IC50
T1 construct: purchased Carna Biosciences 02-131
Protocol: (§1) The principle of the ^33P radioactive kinase assay consists in measuring the incorporated ^33P into the substrate AMARA peptide when phosphorylated by SIK1, SIK2 or SIK3 using [^33P]-g-ATP, which correlates with kinase activity.
(§2) 1% DMSO and 10 μM staurosporine final concentrations are used as negative and positive controls.
(§3) 11 μL of enzyme-substrate mixture is added on the assay plates. The reactions are started by adding 9 μL ATP mixture, consisting of non-labeled and ^33P-labeled ATP, on the assay plates.
(§4) The reactions are stopped by adding 25 μL phosphoric acid (150 mM) to the reactions.
(§5) After harvesting the kinase reactions, the filter plates are washed 6 times with phosphoric acid (75 mM). […] The top of the plates are sealed with TopSeal-A. Read-out is performed with a TopCount instrument (PerkinElmer Inc.).

[2] = target: T2, SIK3 (Homo sapiens, UniProt Q9Y2K2)
T2 construct: purchased SignalChem S12-11G-100
Protocol: as §1, §2, §3, §4, §5

[3] = target: T3, SIK2 (Homo sapiens, UniProt Q9H0K1); conditions: 33P radioactive SIK kinase assay, AMARA peptide, 10 μM ATP
T3 construct: purchased ThermoFisher Scientific PV4792
Protocol: as §1, §2, §3, §4, §5

T2 sequence (Q9Y2K2 whole entry): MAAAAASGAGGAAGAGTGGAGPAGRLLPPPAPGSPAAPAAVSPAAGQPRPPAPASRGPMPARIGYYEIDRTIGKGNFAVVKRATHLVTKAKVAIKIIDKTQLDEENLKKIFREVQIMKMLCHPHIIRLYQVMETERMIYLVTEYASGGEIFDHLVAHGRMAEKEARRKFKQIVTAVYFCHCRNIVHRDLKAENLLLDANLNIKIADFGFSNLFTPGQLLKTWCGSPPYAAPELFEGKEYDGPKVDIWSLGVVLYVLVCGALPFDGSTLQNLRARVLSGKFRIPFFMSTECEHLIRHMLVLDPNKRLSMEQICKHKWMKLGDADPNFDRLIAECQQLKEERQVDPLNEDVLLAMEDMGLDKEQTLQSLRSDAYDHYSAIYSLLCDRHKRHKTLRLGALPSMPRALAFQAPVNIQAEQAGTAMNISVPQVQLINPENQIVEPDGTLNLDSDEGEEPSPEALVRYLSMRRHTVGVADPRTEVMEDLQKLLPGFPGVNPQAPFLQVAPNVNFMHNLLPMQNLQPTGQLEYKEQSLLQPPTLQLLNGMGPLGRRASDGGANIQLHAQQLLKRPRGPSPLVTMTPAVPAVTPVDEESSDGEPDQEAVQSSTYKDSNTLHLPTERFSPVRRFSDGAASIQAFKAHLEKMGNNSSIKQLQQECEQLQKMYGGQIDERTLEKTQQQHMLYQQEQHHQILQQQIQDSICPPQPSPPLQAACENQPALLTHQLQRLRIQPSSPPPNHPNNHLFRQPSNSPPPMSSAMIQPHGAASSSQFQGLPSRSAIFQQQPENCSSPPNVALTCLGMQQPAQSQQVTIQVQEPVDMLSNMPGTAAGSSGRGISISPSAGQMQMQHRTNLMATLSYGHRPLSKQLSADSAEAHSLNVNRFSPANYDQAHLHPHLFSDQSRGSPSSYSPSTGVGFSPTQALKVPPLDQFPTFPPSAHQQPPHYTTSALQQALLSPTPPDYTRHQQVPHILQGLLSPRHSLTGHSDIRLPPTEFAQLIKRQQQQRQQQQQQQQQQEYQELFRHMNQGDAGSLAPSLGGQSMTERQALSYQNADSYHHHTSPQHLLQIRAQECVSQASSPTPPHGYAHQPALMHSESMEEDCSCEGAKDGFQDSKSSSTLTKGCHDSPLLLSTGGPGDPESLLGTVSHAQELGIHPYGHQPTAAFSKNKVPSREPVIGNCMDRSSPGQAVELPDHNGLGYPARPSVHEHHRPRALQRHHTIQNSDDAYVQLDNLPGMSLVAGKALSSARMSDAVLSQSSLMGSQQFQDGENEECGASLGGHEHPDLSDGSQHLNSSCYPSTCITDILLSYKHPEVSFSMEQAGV
T3 sequence (Q9H0K1 whole entry): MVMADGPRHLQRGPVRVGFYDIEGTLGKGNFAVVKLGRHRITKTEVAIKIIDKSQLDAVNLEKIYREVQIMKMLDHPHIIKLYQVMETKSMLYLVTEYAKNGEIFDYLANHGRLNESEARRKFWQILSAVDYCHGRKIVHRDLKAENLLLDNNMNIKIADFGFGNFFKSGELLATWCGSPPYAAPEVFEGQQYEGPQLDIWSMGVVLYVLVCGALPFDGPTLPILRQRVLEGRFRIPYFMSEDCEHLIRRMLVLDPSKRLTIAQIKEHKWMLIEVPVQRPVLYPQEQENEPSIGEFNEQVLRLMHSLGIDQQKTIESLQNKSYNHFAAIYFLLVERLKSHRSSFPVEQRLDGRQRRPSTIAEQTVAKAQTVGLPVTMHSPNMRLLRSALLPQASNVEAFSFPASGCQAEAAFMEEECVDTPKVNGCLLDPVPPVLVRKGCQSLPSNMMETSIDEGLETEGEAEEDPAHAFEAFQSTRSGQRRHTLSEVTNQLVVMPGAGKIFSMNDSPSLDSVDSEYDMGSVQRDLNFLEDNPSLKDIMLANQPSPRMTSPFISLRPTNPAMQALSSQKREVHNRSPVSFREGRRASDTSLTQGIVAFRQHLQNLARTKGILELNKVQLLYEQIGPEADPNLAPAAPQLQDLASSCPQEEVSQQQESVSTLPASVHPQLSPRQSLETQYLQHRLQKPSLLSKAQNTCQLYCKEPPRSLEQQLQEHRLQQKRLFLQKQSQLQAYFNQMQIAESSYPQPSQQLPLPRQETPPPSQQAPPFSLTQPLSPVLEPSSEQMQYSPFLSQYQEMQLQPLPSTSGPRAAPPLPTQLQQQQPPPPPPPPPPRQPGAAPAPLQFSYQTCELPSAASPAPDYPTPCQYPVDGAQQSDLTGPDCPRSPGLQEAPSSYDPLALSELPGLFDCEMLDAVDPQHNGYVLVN
T1 sequence (P57059 whole entry): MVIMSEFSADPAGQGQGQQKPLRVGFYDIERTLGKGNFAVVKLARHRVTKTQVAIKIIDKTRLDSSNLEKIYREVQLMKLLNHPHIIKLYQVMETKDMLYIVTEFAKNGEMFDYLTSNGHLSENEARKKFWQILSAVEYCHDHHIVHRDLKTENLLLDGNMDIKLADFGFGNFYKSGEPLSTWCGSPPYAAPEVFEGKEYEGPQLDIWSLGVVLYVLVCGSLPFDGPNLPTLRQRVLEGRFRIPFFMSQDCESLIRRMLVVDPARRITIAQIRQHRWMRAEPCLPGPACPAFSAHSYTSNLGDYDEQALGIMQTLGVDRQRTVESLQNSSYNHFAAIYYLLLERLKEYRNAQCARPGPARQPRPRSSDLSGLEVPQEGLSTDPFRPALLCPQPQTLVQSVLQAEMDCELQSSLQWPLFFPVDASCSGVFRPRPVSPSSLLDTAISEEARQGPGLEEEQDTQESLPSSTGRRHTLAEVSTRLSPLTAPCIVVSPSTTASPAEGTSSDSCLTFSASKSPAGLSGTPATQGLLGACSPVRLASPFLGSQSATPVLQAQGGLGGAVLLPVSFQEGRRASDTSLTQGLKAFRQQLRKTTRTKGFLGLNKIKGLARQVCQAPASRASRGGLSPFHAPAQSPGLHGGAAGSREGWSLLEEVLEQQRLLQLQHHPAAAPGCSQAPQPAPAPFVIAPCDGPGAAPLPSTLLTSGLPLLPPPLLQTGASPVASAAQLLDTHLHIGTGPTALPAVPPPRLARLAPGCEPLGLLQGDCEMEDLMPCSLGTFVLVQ

Row | SMILES | IC50 [1] | IC50 [2] | IC50 [3]
1 | COc1cc(-n2cnc3cc(-c4cnn(C)c4)ccc32)cc(OC)c1C(=O)NC1CCS(=O)(=O)C1 (stereo not drawn) [compound 66, N-(1,1-dioxothiolan-3-yl)-2,6-dimethoxy-4-[5-(1-methylpyrazol-4-yl)benzimidazol-1-yl]benzamide] | 100 to 500 nM | 100 to 500 nM | 100 to 500 nM
2 | COc1cc(-n2cnc3cc(-c4cnn(C)c4)ccc32)cc(OC)c1C(=O)NC(C)(C)C(F)(F)F [compound 68, 2,6-dimethoxy-4-[5-(1-methylpyrazol-4-yl)benzimidazol-1-yl]-N-(2,2,2-trifluoro-1,1-dimethyl-ethyl)benzamide] | > 500 nM | 100 to 500 nM | > 500 nM
3 | COc1cc(-n2cnc3cc(-c4cnn(C)c4)ccc32)cc(OC)c1C(=O)Nc1ccon1 [compound 72, N-isoxazol-3-yl-2,6-dimethoxy-4-[5-(1-methylpyrazol-4-yl)benzimidazol-1-yl]benzamide] | 10 to 100 nM | 10 to 100 nM | 10 to 100 nM
4 | COc1cc(-n2cnc3cc(-c4cnn(C)c4)ccc32)cc(OC)c1C(=O)Nc1ccnn1C [compound 73, 2,6-dimethoxy-N-(2-methylpyrazol-3-yl)-4-[5-(1-methylpyrazol-4-yl)benzimidazol-1-yl]benzamide] | > 500 nM | 100 to 500 nM | 100 to 500 nM
5 | COc1cc(-n2cnc3cc(-c4cnn(C)c4)ccc32)cc(OC)c1C(=O)N(C)CC#N [compound 74, N-(cyanomethyl)-2,6-dimethoxy-N-methyl-4-[5-(1-methylpyrazol-4-yl)benzimidazol-1-yl]benzamide] | 100 to 500 nM | 10 to 100 nM | 100 to 500 nM
6 | COc1cc(-n2cnc3cc(-c4cnn(C)c4)ccc32)cc(OC)c1C(=O)NCCF [compound 79, N-(2-fluoroethyl)-2,6-dimethoxy-4-[5-(1-methylpyrazol-4-yl)benzimidazol-1-yl]benzamide] | 10 to 100 nM | 0.01 to 10 nM | 0.01 to 10 nM
7 | COc1cc(-n2cnc3cc(-c4cnn(C)c4)ccc32)cc(OC)c1C(=O)Nc1ccn(C)n1 [compound 81, 2,6-dimethoxy-N-(1-methylpyrazol-3-yl)-4-[5-(1-methylpyrazol-4-yl)benzimidazol-1-yl]benzamide] | 100 to 500 nM | 100 to 500 nM | 100 to 500 nM

The remaining lines, values ahead:

Row | IC50 [1] | IC50 [2] | IC50 [3] | SMILES
8 | 100 to 500 nM | 10 to 100 nM | 10 to 100 nM | COc1cc(-n2cnc3cc(-c4cnn(C)c4)ccc32)cc(OC)c1C(=O)NCCS(C)(=O)=O [compound 65, 2,6-dimethoxy-4-[5-(1-methylpyrazol-4-yl)benzimidazol-1-yl)-N-(2-methylsulfonylethyl)benzamide]
9 | 100 to 500 nM | 100 to 500 nM | 100 to 500 nM | COc1cc(-n2cnc3cc(-c4cnn(C)c4)ccc32)cc(OC)c1C(=O)NC[C@@H]1COCCO1 [compound 67, N-[[(2R)-1,4-dioxan-2-yl]methyl]-2,6-dimethoxy-4-[5-(1-methylpyrazol-4-yl)benzimidazol-1-yl]benzamide]
10 | 100 to 500 nM | 100 to 500 nM | 100 to 500 nM | COc1cc(-n2cnc3cc(-c4cnn(C)c4)ccc32)cc(OC)c1C(=O)NC[C@H]1COCCO1 [compound 69, N-[[(2S)-1,4-dioxan-2-yl]methyl]-2,6-dimethoxy-4-[5-(1-methylpyrazol-4-yl)benzimidazol-1-yl]benzamide]
11 | 100 to 500 nM | 100 to 500 nM | 10 to 100 nM | COc1cc(-n2cnc3cc(-c4cnn(C)c4)ccc32)cc(OC)c1C(=O)NCc1nccn1C [compound 71, 2,6-dimethoxy-N-[(1-methylimidazol-2-yl)methyl]-4-[5-(1-methylpyrazol-4-yl)benzimidazol-1-yl]benzamide]
12 | 10 to 100 nM | 0.01 to 10 nM | 0.01 to 10 nM | COc1cc(-n2cnc3cc(-c4cnn(C)c4)ccc32)cc(OC)c1C(=O)NCC#N [compound 75]
13 | 10 to 100 nM | 10 to 100 nM | 10 to 100 nM | COc1cc(-n2cnc3cc(-c4cnn(C)c4)ccc32)cc(OC)c1C(=O)NC1CCC1 [compound 77, N-cyclobutyl-2,6-dimethoxy-4-[5-(1-methylpyrazol-4-yl)benzimidazol-1-yl]benzamide]
